Test results: article PMC10477861, “Efficient Mining of Anticancer Peptides from Gut Metagenome” (Advanced Science, 2023)

Experiments:
Conditions in all cases: 25 µM pACP, 24 h, maintenance medium 1% FBS, ratio of viability to vehicle (PBS), at least three technical repetitions
MDA-MB-453 = assay: MTT primary screening of anticancer activity, MDA-MB-453; format: cell-based
Summary of the method: (§1)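 Single-concentration screen: cells at 60% confluence given peptide at 25 µM for 24 h in maintenance medium with 1% FBS. Viability by MTT kit; peptides with minimum effective inhibition concentration >25 µM deemed non-ACPs.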

HCT116 = assay: MTT primary screening of anticancer activity, HCT116; format: cell-based, Human
Summary of the method: as §1

BT474 = assay: MTT primary screening of anticancer activity, BT474; format: cell-based
Summary of the method: as §1

T47D = assay: MTT primary screening of anticancer activity, T47D; format: cell-based
Summary of the method: as §1

Caco2 = assay: MTT primary screening of anticancer activity, Caco2; format: cell-based, Human
Summary of the method: as §1

B16 = assay: MTT primary screening of anticancer activity, B16; format: cell-based, Mouse
Summary of the method: as §1

LCC = assay: MTT primary screening of anticancer activity, LCC; format: cell-based
Summary of the method: as §1

MCF7 = assay: MTT primary screening of anticancer activity, MCF7; format: cell-based
Summary of the method: as §1

HT29 = assay: MTT primary screening of anticancer activity, HT29; format: cell-based, Human
Summary of the method: as §1

MDA-MB-468 = assay: MTT primary screening of anticancer activity, MDA-MB-468; format: cell-based
Summary of the method: as §1

CT26 = assay: MTT primary screening of anticancer activity, CT26; format: cell-based, Murine
Summary of the method: as §1

MDA-MB-231 = assay: MTT primary screening of anticancer activity, MDA-MB-231; format: cell-based
Summary of the method: as §1

SK-BR-3 = assay: MTT primary screening of anticancer activity, SK-BR-3; format: cell-based
Summary of the method: as §1

MDA-MB-436 = assay: MTT primary screening of anticancer activity, MDA-MB-436; format: cell-based
Summary of the method: as §1

EFM192A = assay: MTT primary screening of anticancer activity, EFM192A; format: cell-based
Summary of the method: as §1

Hela = assay: MTT primary screening of anticancer activity, Hela; format: cell-based, Human
Summary of the method: as §1

What does the source list for “YRKCDTAGGLSKLCVAEKDIKIIWKYGGR [pACP2334]”?
Survival rate of cancer cells in primary screening (MDA-MB-453): 1.00; Survival rate of cancer cells in primary screening (HCT116): 1.00; Survival rate of cancer cells in primary screening (BT474): 1.00; Survival rate of cancer cells in primary screening (T47D): 0.78; Survival rate of cancer cells in primary screening (Caco2): 1.00; Survival rate of cancer cells in primary screening (B16): 0.76; Survival rate of cancer cells in primary screening (LCC): 1.00; Survival rate of cancer cells in primary screening (MCF7): 1.00; Survival rate of cancer cells in primary screening (HT29): 1.00; Survival rate of cancer cells in primary screening (MDA-MB-468): 1.00; Survival rate of cancer cells in primary screening (CT26): 1.00; Survival rate of cancer cells in primary screening (MDA-MB-231): 1.00; Survival rate of cancer cells in primary screening (SK-BR-3): 1.00; Survival rate of cancer cells in primary screening (MDA-MB-436): 1.00; Survival rate of cancer cells in primary screening (EFM192A): 1.00; Survival rate of cancer cells in primary screening (Hela): 1.00

For “YSYGYVISSCKKAGGGYAIRYVALHYVQGTKEGGGRQ [pACP2344]”, which “Survival rate of cancer cells in primary screening” value (“Survival rate of cancer cells” for short) (MDA-MB-453) is on record?
The value was 1.00.

And the “Survival rate of cancer cells” value (HCT116)?
The value was 1.00.

What about the “Survival rate of cancer cells” value (BT474) of the same sequence?
The value was 0.68.

What about the “Survival rate of cancer cells” value (T47D) of the same sequence?
The value was 1.00.

What about the “Survival rate of cancer cells” value (Caco2) of the same sequence?
Its value is 1.00.

And the “Survival rate of cancer cells” value (B16)?
The value was 0.76.

And the “Survival rate of cancer cells” value (LCC)?
Its value is 1.00.

What about the “Survival rate of cancer cells” value (MCF7) of the same sequence?
Its value is 1.00.

What about the “Survival rate of cancer cells” value (HT29) of the same sequence?
The value was 1.00.

What about the “Survival rate of cancer cells” value (MDA-MB-468) of the same sequence?
Its value is 1.00.

And the “Survival rate of cancer cells” value (CT26)?
Its value is 1.00.

And the “Survival rate of cancer cells” value (MDA-MB-231)?
The value was 1.00.

And the “Survival rate of cancer cells” value (SK-BR-3)?
Its value is 1.00.

What about the “Survival rate of cancer cells” value (MDA-MB-436) of the same sequence?
Its value is 1.00.

And the “Survival rate of cancer cells” value (EFM192A)?
Its value is 1.00.

What about the “Survival rate of cancer cells” value (Hela) of the same sequence?
Its value is 1.00.
